Source: patent US10300067B2, “Tetrahydropyridopyrimidine compound or salt thereof” (TAIHO PHARMACEUTICAL CO., LTD., priority 2014, dated 2019)

Key:
Format in all cases: cell-based
[1] = target: human androgen receptor (Homo sapiens (Human), UniProt P10275); test: Antagonist activity for AR (pMMTV-luc reporter transcription activity in transfected COS-7 cells, DHT 1 nmol/L); conditions: 50% transcription activity inhibition concentration; COS-7 cells with pMMTV-luc and pEX-hAR, DHT 1 nmol/L, 24 hours
Chain of human androgen receptor (P10275 whole entry): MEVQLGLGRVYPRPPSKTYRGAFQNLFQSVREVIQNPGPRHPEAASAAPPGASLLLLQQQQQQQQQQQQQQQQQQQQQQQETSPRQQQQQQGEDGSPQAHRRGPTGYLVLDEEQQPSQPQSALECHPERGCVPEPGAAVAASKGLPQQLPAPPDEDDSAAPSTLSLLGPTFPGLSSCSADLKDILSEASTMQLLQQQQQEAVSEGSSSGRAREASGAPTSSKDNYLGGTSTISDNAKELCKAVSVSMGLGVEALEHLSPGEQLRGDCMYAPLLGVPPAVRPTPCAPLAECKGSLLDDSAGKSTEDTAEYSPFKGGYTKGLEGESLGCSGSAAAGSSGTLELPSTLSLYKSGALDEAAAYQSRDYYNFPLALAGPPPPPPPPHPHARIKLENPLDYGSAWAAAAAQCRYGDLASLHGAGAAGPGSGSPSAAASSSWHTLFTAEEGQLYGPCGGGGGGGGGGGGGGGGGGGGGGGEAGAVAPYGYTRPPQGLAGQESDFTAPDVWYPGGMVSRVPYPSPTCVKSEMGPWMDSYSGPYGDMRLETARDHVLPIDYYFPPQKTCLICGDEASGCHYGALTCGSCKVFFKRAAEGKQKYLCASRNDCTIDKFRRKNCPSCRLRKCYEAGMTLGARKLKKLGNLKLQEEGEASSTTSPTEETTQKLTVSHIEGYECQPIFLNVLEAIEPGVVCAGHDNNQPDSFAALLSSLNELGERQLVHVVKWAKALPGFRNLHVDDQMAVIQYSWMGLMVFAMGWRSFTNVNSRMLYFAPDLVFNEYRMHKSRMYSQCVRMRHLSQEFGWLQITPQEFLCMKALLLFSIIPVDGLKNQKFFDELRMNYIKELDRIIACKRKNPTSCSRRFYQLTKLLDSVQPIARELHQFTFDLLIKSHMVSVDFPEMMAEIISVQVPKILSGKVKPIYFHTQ
Experimental: Antagonist activity for AR was evaluated according to the following method. COS-7 cells (ATCC) were transfected with pMMTV-luc vector (reporter plasmid having, as an androgen response element, […] long terminal repeat) and pEX-hAR vector (human androgen receptor expression vector: which expresses human AR gene under control of CMV promoter) by using Nucleofector (registered trademark) Kit R (Lonza) as a transfection reagent and Amaxa (Lonza). The COS-7 cells obtained after transfection were seeded in a clear bottom 96 well microplate (BD) at 1.5×10^4/well with phenol red free RPMI1640 containing 10% charcoal-treated fetal bovine serum (hereinbelow, DCC-FBS) (hereinbelow, the medium is referred to as an evaluation medium), and then cultured overnight. […] Then, the transcription activity value was measured. The transcription activity was measured by using Bright-Glo™ Luciferase Assay System (Promega).

[2] = test system: Human prostate cancer cells LNCaP; test: Androgen-dependent inhibitory activity on proliferation of prostate cancer cells; conditions: 50% proliferation inhibition concentration, DHT 10 nmol/L, 72 hours, read-out: GI50 value
Experimental: Human prostate cancer cells LNCaP (Non-Patent Literature 5) having […] androgen receptor gene were seeded in a clear bottom 96 well microplate (BD) at 4.0×10^3/well with phenol red free RPMI1640 containing 5% DCC-FBS (hereinbelow, the medium is referred to as an evaluation medium), and then cultured overnight. The culture was added with the evaluation medium containing DHT (final concentration of DHT: 10 nmol/L) or the evaluation medium containing the compound of Examples or the compound of Comparative Examples (final concentration of the compound of Examples or the compound of Comparative Examples: 10, 30, 100, 300, 1000, 3000, 10000, or 30000 nmol/L), followed by culture for 72 hours. Then, the number of viable cells was counted. The number of viable cells was measured by using Cell Counting Kit-8 (DOJINDO LABORATORIES).

[3] = test system: AR positive human prostate cancer cells VCaP; test: Agonist activity for AR (cell proliferation rate of VCaP cells); conditions: 72 hours, 2 to 10000 nmol/L, more than 10% at any concentration = agonist activity for AR
Experimental: AR positive human prostate cancer cells VCaP (In Vivo 15:163-168, 2001) were seeded in a clear bottom 96 well microplate (BD) at 1.5×10^4/well with phenol red free RPMI1640 containing 5% DCC-FBS (hereinbelow, the medium is referred to as an evaluation medium), and then cultured overnight. The culture was added with the evaluation medium containing the compound of Examples or the compound of Comparative Examples (final concentration of the compound of Examples or the compound of Comparative Examples: 2, 5, 14, 41, 123, 370, 1111, 3333, or 10000 nmol/L), followed by culture for 72 hours. Then, the number of viable cells was counted (test group). As a control, the cells were cultured after being added with the evaluation medium only, and the number of viable cells was counted (control group). The number of viable cells was measured by using CellTiter-Glo™ Luminescent Cell Viability Assay (Promega). From the measured number of viable cells, cell proliferation rate with respect to the compound of Examples or the compound of Comparative Examples was calculated based on the number of viable cells measured in the case of using the evaluation medium only. Cell proliferation rate (%) =(Number of viable cells in test group−Number of viable cells in control group)/(Number of viable cells in control group)×100
By considering an error in the number of viable cells measured in the case of using the evaluation medium only, when the cell proliferation rate was more than 10% at any concentration of the 9 concentrations which had been evaluated, it was determined to have an agonist activity for AR.

[4] = target: androgen receptor (Homo sapiens (Human), UniProt P10275, T878A); test: Activity of reducing expression level of androgen receptor (Western blotting of LNCaP cell lysate); conditions: 48 hours
Chain of androgen receptor (P10275 whole entry T878A): as the sequence (P10275 whole entry) above, with T878A counted along it
Experimental: AR positive human prostate cancer cells LNCaP were seeded in a clear bottom 6 well microplate (BD) at 3.5×10^5/well with phenol red free RPMI1640 containing 5% FBS (hereinbelow, the medium is referred to as an evaluation medium), and then cultured overnight. The culture was added with the evaluation medium containing the compound of Examples or the compound of Comparative Examples such that the final concentration of the compound of Examples or the compound of Comparative Examples was 10000 nmol/L, followed by culture for 48 hours. After culture for 48 hours, the medium was removed and the cells were washed with PBS and added with 0.1 mL of Lysis buffer (M-PER added with Protease Inhibitor Cocktail), followed by keeping at 4° C. for 20 minutes. After cell lysis, the cell solution was centrifuged to recover the supernatant as cell lysate. […] The antibody-reacting band (anti AR receptor) was quantified by LAS-3000 (FUJIFILM) using Super Signal West Pico Substrate (Thermo Scientific) as a detection reagent.

Structure (SMILES) | IC50 [1] | GI50 [2] | Cell proliferation rate (%) [3] | 10 μM AR expression reducing activity [4]
Cn1nccc1CCNC(=O)c1nnc(Nc2ncnc3c2CCN(c2ccc(C#N)c(C(F)(F)F)c2)C3)s1 [Example 35, 5-((7-(4-Cano-3-(trifluoromethyl)phenyl)-5,6,7,8-tetrahydropyrido[3,4-d]pyrimidin-4-yl)amino)-N-(2-(1-methyl-1H-pyrazol-5-yl)ethyl)-1,3,4-thiadiazol-2-carboxamide] | 190 nM | 1600 nM | 0.1% | –
CC(C)(O)c1ccc(Nc2ncnc3c2CCN(c2ccc(C#N)c(C(F)(F)F)c2)C3)nc1F [Example 5, 4-(4-((6-fluoro-5-(2-hydroxypropan-2-yl)pyridin-2-yl)amino)-5,6-dihydropyrido[3,4-d]pyrimidin-7 (8H)-yl)-2-(trifluoromethyl)benzonitrile] | 190 nM | 600 nM | −5.5% | reduced (When the AR expression reducing activity is 50% or more, it is described as “reduced”)
N#Cc1ccc(N2CCc3c(ncnc3Nc3ccc(C(=O)NCC(F)F)cn3)C2)cc1C(F)(F)F [Example 27, 6-((7-(4-Cyano-3-(trifluoromethyl)phenyl)-5,6,7,8-tetrahydropyrido[3,4-d]pyrimidin-4-yl)amino)-N-(2,2-difluoroethyl)nicotinamide] | 90 nM | 2800 nM | −0.2% | –
Cn1nccc1CCOc1ccc(Nc2ncnc3c2CCN(c2ccc(C#N)c(C(F)(F)F)c2)C3)cc1 [Example 14, 4-(4-((4-(2-(1-Methyl-1H-pyrazol-5-yl)ethoxy)phenyl)amino)-5,6-dihydropyrido[3,4-d]pyrimidin-7(8H)-yl)-2-(trifluoromethyl)benzonitrile] | 300 nM | 1400 nM | – | reduced (When the AR expression reducing activity is 50% or more, it is described as “reduced”)
N#Cc1ccc(N2CCc3c(ncnc3Nc3ccc(C(=O)NCC4(O)CC4)nn3)C2)cc1C(F)(F)F [Example 30, 6-((7-(4-Cyano-3-(trifluoromethyl)phenyl)-5,6,7,8-tetrahydropyrido[3,4-d]pyrimidin-4-yl)amino)-N-((1-hydroxycyclopropyl)methyl)pyridazine-3-carboxamide] | – | 3200 nM | – | reduced (When the AR expression reducing activity is 50% or more, it is described as “reduced”)
C[C@@H](NC(=O)c1ccc(Nc2ncnc3c2CCN(c2ccc(C#N)c(C(F)(F)F)c2)C3)nc1)c1nnco1 [Example 38, (R)—N-(1-(1,3,4-oxadiazol-2-yl)ethyl)-6-((7-(4-cyano-3-(trifluoromethyl)phenyl)-5,6,7,8-tetrahydropyrido[3,4-d]pyrimidin-4-yl)amino)nicotinamide] | 560 nM | 1100 nM | −2.7% | reduced (When the AR expression reducing activity is 50% or more, it is described as “reduced”)
N#Cc1ccc(N2CCc3c(ncnc3Nc3ccc(C(=O)NCC(F)(F)F)nn3)C2)cc1C(F)(F)F [Example 24, 6-((7-(4-Cyano-3-(trifluoromethyl)phenyl)-5,6,7,8-tetrahydropyrido[3,4-d]pyrimidin-4-yl)amino)-N-(2,2,2-trifluoroethyl)pyridazine-3-carboxamide] | 70 nM | 3500 nM | – | reduced (When the AR expression reducing activity is 50% or more, it is described as “reduced”)
N#Cc1ccc(N2CCc3c(ncnc3Nc3ccc(C(=O)N[C@H]4CC[C@H](O)CC4)nn3)C2)cc1Cl [Example 29, 6-((7-(3-Chloro-4-cyanophenyl)-5,6,7,8-tetrahydropyrido[3,4-d]pyrimidin-4-yl)amino)-N-((1r,4r)-4-hydroxycyclohexyl)pyridazine-3-carboxamide] | 200 nM | 200 nM | – | –
N#Cc1ccc(N2CCc3c(ncnc3Nc3ncns3)C2)cc1C(F)(F)F [Example 1, 4-(4-((1,2,4-thiadiazol-5-yl)amino)-5,6-dihydropyrido[3,4-d]pyrimidin-7(8H)-yl)-2-(trifluoromethyl)benzonitrile] | 80 nM | 3000 nM | 8.7% | reduced (When the AR expression reducing activity is 50% or more, it is described as “reduced”)
N#Cc1ccc(N2CCc3c(ncnc3Nc3ccc(NC(=O)CC(F)(F)F)cn3)C2)cc1C(F)(F)F [Example 23, N-(6-((7-(4-Cano-3-(trifluoromethyl)phenyl)-5,6,7,8-tetrahydropyrido[3,4-d]pyrimidin-4-yl)amino)pyridin-3-yl)-3,3,3-trifluoropropanamide] | 800 nM | 1500 nM | 5.1% | –
N#Cc1ccc(N2CCc3c(ncnc3Nc3ccc(S(=O)(=O)NC4CC4)cn3)C2)cc1C(F)(F)F [Example 19, 6-((7-(4-Cyano-3-(trifluoromethyl)phenyl)-5,6,7,8-tetrahydropyrido[3,4-d]pyrimidin-4-yl)amino)-N-cyclopropylpyridine-3-sulfonamide] | 130 nM | 3000 nM | – | –
CC(O)(CS(=O)(=O)c1ccc(F)cc1)C(=O)Nc1ccc(C#N)c(C(F)(F)F)c1 (centres unmarked) [Comparative Example 1, N-(4-Cyano-3-(trifluoromethyl)phenyl)-3-((4-fluorophenyl)sulfonyl)-2-hydroxy-2-methylpropanamide, reference compound] | – | 3500 nM | 39.7% | –
N#Cc1ccc(N2CCc3c(ncnc3Nc3ccc(C(=O)NCC(F)F)nn3)C2)cc1C(F)(F)F [Example 28, 6-((7-(4-Cyano-3-(trifluoromethyl)phenyl)-5,6,7,8-tetrahydropyrido[3,4-d]pyrimidin-4-yl)amino)-N-(2,2-difluoroethyl)pyridazine-3-carboxamide] | 20 nM | 3200 nM | – | reduced (When the AR expression reducing activity is 50% or more, it is described as “reduced”)
CC(C)(O)C1CCN(C(=O)c2coc(Nc3ncnc4c3CCN(c3ccc(C#N)c(C(F)(F)F)c3)C4)n2)CC1 [Example 41, 4-(4-((4-(4-(2-Hydroxypropan-2-yl)piperidin-1-carbonyl)oxazol-2-yl)amino)-5,6-dihydropyrido[3,4-d]pyrimidin-7(8H)-yl)-2-(trifluoromethyl)benzonitrile] | 1940 nM | 2400 nM | – | reduced (When the AR expression reducing activity is 50% or more, it is described as “reduced”)
CC(C)(O)CNC(=O)c1cnc(Nc2ncnc3c2CCN(c2ccc(C#N)c(C(F)(F)F)c2)C3)cn1 [Example 33, 5-((7-(4-Cyano-3-(trifluoromethyl)phenyl)-5,6,7,8-tetrahydropyrido[3,4-d]pyrimidin-4-yl)amino)-N-(2-hydroxy-2-methylpropyl)pyrazine-2-carboxamide] | 310 nM | 2100 nM | 4.4% | –
